# Reference: patent US6977296B2, “HUMAN CERVICAL CANCER SUPPRESSOR PROTEIN, POLYNUCLEOTIDE ENCODING THE PROTEIN, CELL TRANSFORMED WITH THE POLYNUCLEOTIDE AND METHOD FOR SUPPRESSING PROLIFERATION OF CANCER CELL USING THE EXPRESSION VECTOR” (priority 2000, dated 2005)
# Tested on: HeLa cervical cancer cells
# Experiment: Adriamycin or UVC-triggered apoptosis: cell cycle kinetic analysis (PI, FACS)
# Assay type: cell-based, human
# Procedure: To examine whether a drug or UV light triggers apoptosis of the cells transfected with HCCS-1 gene, the cell cycle kinetic analysis was conducted as described by Hedley, D. W.(in Flow Cytometry, DNA Analysis from Paraffin-embedded Blocks (eds Darzynkiewicz, Z. & Crissman, H. A.) 139 (Academic Press, San Diego, 1990)).
# HeLa cells transfected with HCCS-1 gene obtained in Step 2 of Example 4 and parental wild-type cells were cultured until mid-log phase and incubated in Waymouth MB 752/1 medium containing 0.5% bovine calf serum for 36 hours to arrest the cell growth at G0/G1 phase. The cells were treated with adriamycin (0.1 and 2 μg/ml, respectively) or UVC (50 J/m^2) and then the cells were cultured in Waymouth MB 752/1 medium containing 0.5% bovine calf to resume the cell growth. After 24 hours, HeLa cells were harvested, treated with trypsin, and fixed in 70% ethanol.
# 50 μg/ml of PI staining solution (Sigma) and 100 units/ml of RNase A (Boerhinger Mannheim) were added to 2×10^6 of the fixed cells. After incubation for 1 hour, the cellular DNA content was determined by fluorescence analysis at 488 nm using a FACS Caliber (Becton Dickinson). A minimum of 1×10^4 cells per sample was analyzed with Modfit 5.2 software.
structure (smiles),measurement,setting,value
COc1cccc2c1C(=O)c1c(O)c3c(c(O)c1C2=O)C[C@@](O)(C(=O)CO)C[C@@H]3O[C@H]1C[C@H](N)[C@H](O)[C@H](C)O1 [adriamycin],differences in cell populations with respect to cell cycle progression between wild-type and HCCS-1-transfected HeLa cells,"adriamycin 0.1 and 2 μg/ml, 24 hours",no significant differences
same,cells in apoptotic sub G0/G1-phase,"wild-type HeLa cells, 24 hours after adriamycin 0.1 and 2 μg/ml",few cells remained in apoptotic sub G0/G1-phase
